Reference: US11739111B2, “Manufacture of trans-[tetrachlorobis(1H-indazole)ruthenate (III)] and compositions thereof” (Bold Therapeutics, Inc., priority 2017, dated 2023)
Several values for one entry are separate records, joined by “and”; a condition that tells them apart may be missing. Equal values may be shown once.

What was measured:
Assay type in all cases: physicochemical
[1] = Stability of the isolated cesium intermediate as dry powder; conditions: ambient conditions
Text: Another aspect of the invention is the introduction of step S-2 into the preparation of Formula I-b. Step S-2 involves the preparation of a cesium intermediate, Formula I-a. […] As stated above, indazolium trans-[tetrachlorobis(1H-indazole)ruthenate (III)] is isolated by filtration as what can best be described as a mud-like substance. The stability of this compound is improved by the presence of hydrochloric acid (chloride ions). Washing the filtrate with polar solvents (e.g. methanol) also lead to degradation. Therefore, the best practice is to prepare the indazolium trans-[tetrachlorobis(1H-indazole)ruthenate (III)], isolate by filtration, and use directly for S-2 without delay. S-2 consists of mixing indazolium trans-[tetrachlorobis(1H-indazole)ruthenate (III)] and cesium chloride in a suitable solvent. Suitable solvents can be alcohol with 1 to 5 carbon atoms, a diol with 2-4 carbon atoms, water, ketones with […], cyclic ethers containing 4 to 7 carbon atoms, amides with 1 to 4 carbon atoms, DMSO, sulfolane, esters with 4 to 6 carbon atoms, chlorinated hydrocarbons with 1 or 2 carbon atoms, liquid aromatic hydrocarbons, nitriles with 2-6 carbon atoms, or mixture of thereof.

[2] = Solution stability study of IT-139 bulk solution (HPLC peak area over time); conditions: for % Peak Area Unspecified: impurities; for % Peak Area RRT 1.09 / % Peak Area RRT 1.28: impurity
Protocol: HPLC Method 1 Assay and identity of sodium trans-[tetrachlorobis(1H-indazole) ruthenate (III)] was determined by high pressure liquid chromatography with UV detection at 292 nm. IT-139 drug product was dissolved in water at concentration of 1 mg/mL, and 10 μL was injected onto an Agilent Zorbax SB-C18 (3 μm, 4.6×150 mm) HPLC column. Mobile phase A consisted of 0.1% trifluoroacetic acid in water and mobile phase B consisted of 0.1% trifluoroacetic acid in acetonitrile. Separation was achieved by gradient flow at 1.0 mL/minute such that mobile phase A constituting from 90% to 10% from time zero to 12 minutes, with mobile phase B constituting from 10% to 90% over 12 minutes. The gradient was then reversed from 10% mobile phase A and 90% mobile phase B to 90% A and 10% B from 12 minutes to 13 minutes. This continued until the end of the run at 15 minutes. The analyte retention time was 7.7 minutes. Sample temperature was maintained at 5° C., and column temperature was maintained at 25° C.
HPLC Method 2 Two HPLC methods are used because two different impurities co-elute using HPLC Method 1. Related substances for IT-139 drug product were determined by high pressure liquid chromatography with UV detection at 292 nm. IT-139 drug product was dissolved in water at concentration of 1 mg/mL, and 10 μL was injected onto an Agilent Zorbax SB-C18 (3 μm, 4.6×150 mm) HPLC column. Mobile phase A consisted of 0.1% trifluoroacetic acid in water and mobile phase B consisted of 0.1% trifluoroacetic acid in acetonitrile. Separation was achieved by gradient flow at 1.0 mL/minute such that mobile phase A constituted from 90% to 10% from time zero to 15 minutes, with mobile phase B constituted from 10% to 90% over 15 minutes. The gradient was held at 10% A and 90% B from 15 minutes to 19.9 minutes. The gradient was then reversed to 90% A and 10% B from 19.9 minutes to 20 minutes, and was held until the end of the run at 26 minutes. Sample temperature was maintained at 5° C., and column temperature was maintained at 25° C.
Compound from Example 5 was prepared at room temperature (20° C.) using room temperature solutions, and refrigerated (2-8° C.) using cold (2-8° C.) solutions, for a total volume of 500 mL for each. Citric acid solution was prepared by dissolving 19.2 grams of citric acid in 1 L of water. Sodium citrate solution was prepared by dissolving 29.4 grams of sodium citrate in 1 L of water. Sodium citrate solution was added to the citric acid solution until the pH was increased from 2.0 to 3.4. Mannitol solution was prepared by dissolving 13.3 g in 200 mL of water. Solutions of Formula I-b were prepared by adding 16.6 mL of citrate buffer to 400 mL water. 3.33 g sodium trans[tetrachlorobis(1H-indazole)ruthenate(III)] was added to the solution and stirred for 10 minutes. 50 mL of mannitol solution was added followed by 33.4 mL of water for a final volume of 500 mL IT-139 bulk solution. The room temperature (18-22° C.) sample was stirred using a magnetic stir plate on the laboratory bench, and the refrigerated sample was stirred using a magnetic stir plate in a refrigerator (2-8° C.). Aliquots of 100 μL were taken from each sample immediately upon dissolution (T=0) and at time points of 0.5, 1, 2, 3, 4, 5, 6, 18, 24, 32, and 48 hours. Each sample was added to 1.9 mL methanol in an HPLC vial and mixed by vortex. […] HPLC chromatograms for IT-139 samples stored refrigerated or at room temperature at the 18 hour time point are shown in FIG. 2 and FIG. 3, respectively.

[3] = Stability of Formula I-b in chloride-containing solutions versus pure water (aquation to Compound A); conditions: sodium chloride or hydrochloric acid solutions compared with pure water
[4] = 20° C. (room temperature), 0.5 h
[5] = 20° C. (room temperature), 18 h

## [Cl][Ru-3]([Cl])([Cl])([Cl])([n+]1cc2ccccc2[nH]1)[n+]1cc2ccccc2[nH]1.[Cs+] [Formula I-a, cesium trans-[tetrachlorobis(1H-indazole)ruthenate (III)]]
[1]
  stability of the dry powder: stable at ambient conditions

## [Cl][Ru-]([Cl])([Cl])[Cl].[Na+].c1ccc2[nH]ncc2c1.c1ccc2[nH]ncc2c1 [Formula I-b, sodium trans-[tetrachlorobis(1H-indazole)ruthenate (III)]]
[2]; 4° C. (refrigerated), 0 h
  % Peak Area RT 7.7 min: 97.05% and 97.1%
  % Peak Area Unspecified: <0.1%
  % Peak Area RRT 1.09: 0.96%
  % Peak Area RRT 1.28: 1.91%
[2]; 4° C. (refrigerated), 0.5 h
  % Peak Area RT 7.7 min: 97.3%
  % Peak Area Unspecified: <0.1%
  % Peak Area RRT 1.09: 0.96%
  % Peak Area RRT 1.28: 1.7%
[2]; 4° C. (refrigerated), 1 h
  % Peak Area RT 7.7 min: 97.0%
  % Peak Area Unspecified: <0.1%
  % Peak Area RRT 1.09: 1.03%
  % Peak Area RRT 1.28: 1.9%
[2]; 4° C. (refrigerated), 2 h
  % Peak Area RT 7.7 min: 97.0%
  % Peak Area Unspecified: 0.14%
  % Peak Area RRT 1.09: 1.04%
  % Peak Area RRT 1.28: 1.86%
[2]; 4° C. (refrigerated), 3 h
  % Peak Area RT 7.7 min: 96.8%
  % Peak Area Unspecified: 0.16%
  % Peak Area RRT 1.09: 1.07%
  % Peak Area RRT 1.28: 0.94%
[2]; 4° C. (refrigerated), 4 h
  % Peak Area RT 7.7 min: 96.5%
  % Peak Area Unspecified: 0.26%
  % Peak Area RRT 1.09: 1.13%
  % Peak Area RRT 1.28: 2.14%
[2]; 4° C. (refrigerated), 5 h
  % Peak Area RT 7.7 min: 96.6%
  % Peak Area Unspecified: <0.1%
  % Peak Area RRT 1.09: 1.11%
  % Peak Area RRT 1.28: 2.2%
[2]; 4° C. (refrigerated), 6 h
  % Peak Area RT 7.7 min: 96.8%
  % Peak Area Unspecified: <0.1%
  % Peak Area RRT 1.09: 1.09%
  % Peak Area RRT 1.28: 2.07%
[2]; 4° C. (refrigerated), 18 h
  % Peak Area RT 7.7 min: 95.4%
  % Peak Area Unspecified: 0.11%
  % Peak Area RRT 1.09: 1.45%
  % Peak Area RRT 1.28: 3.07%
[2]; 4° C. (refrigerated), 24 h
  % Peak Area RT 7.7 min: 94.8%
  % Peak Area Unspecified: <0.1%
  % Peak Area RRT 1.09: 1.34%
  % Peak Area RRT 1.28: 3.76%
[2]; 4° C. (refrigerated), 32 h
  % Peak Area RT 7.7 min: 94.9%
  % Peak Area Unspecified: <0.1%
  % Peak Area RRT 1.09: 1.33%
  % Peak Area RRT 1.28: 3.65%
[2]; 4° C. (refrigerated), 48 h
  % Peak Area RT 7.7 min: 89.8%
  % Peak Area Unspecified: <0.1%
  % Peak Area RRT 1.09: 2.39%
  % Peak Area RRT 1.28: 7.56%
[2]; 20° C. (room temperature), 0 h
  % Peak Area RT 7.7 min: 96.8%
  % Peak Area Unspecified: <0.1%
  % Peak Area RRT 1.09: 0.88%
  % Peak Area RRT 1.28: 2.26%
[2]; [4]
  % Peak Area RT 7.7 min: 96.8%
  % Peak Area Unspecified: <0.1%
  % Peak Area RRT 1.09: 1.08%
  % Peak Area RRT 1.28: 2.07%
[2]; 20° C. (room temperature), 1 h
  % Peak Area RT 7.7 min: 96.5%
  % Peak Area Unspecified: <0.1%
  % Peak Area RRT 1.09: 1.14%
  % Peak Area RRT 1.28: 2.28%
[2]; 20° C. (room temperature), 2 h
  % Peak Area RT 7.7 min: 96.3%
  % Peak Area Unspecified: 0.13%
  % Peak Area RRT 1.09: 1.22%
  % Peak Area RRT 1.28: 2.34%
[2]; 20° C. (room temperature), 3 h
  % Peak Area RT 7.7 min: 95.9%
  % Peak Area Unspecified: 0.16%
  % Peak Area RRT 1.09: 1.35%
  % Peak Area RRT 1.28: 2.55%
[2]; 20° C. (room temperature), 4 h
  % Peak Area RT 7.7 min: 95.4%
  % Peak Area Unspecified: 0.25%
  % Peak Area RRT 1.09: 1.47%
  % Peak Area RRT 1.28: 2.89%
[2]; 20° C. (room temperature), 5 h
  % Peak Area RT 7.7 min: 94.9%
  % Peak Area Unspecified: 0.26%
  % Peak Area RRT 1.09: 1.58%
  % Peak Area RRT 1.28: 3.27%
[2]; 20° C. (room temperature), 6 h
  % Peak Area RT 7.7 min: 94.0%
  % Peak Area Unspecified: 0.13%
  % Peak Area RRT 1.09: 1.88%
  % Peak Area RRT 1.28: 4%
[2]; [5]
  % Peak Area RT 7.7 min: 12.1%
  % Peak Area Unspecified: 1.82%
  % Peak Area RRT 1.09: 25.2%
  % Peak Area RRT 1.28: 60.87%
[3]
  stability in solution: much more stable
